Tests used:
Format in all cases: in vivo
[1] = test system: LDL blood levels; experiment: Total LDL blood levels in human subjects upon MN-001 administration
Protocol: Human subjects were administered various daily amounts of MN-001 and placebo and their total LDL blood levels (mg/dl) measured at various time points.

[2] = test system: triglyceride blood levels; experiment: Triglyceride blood levels in human subjects upon MN-001 administration
Protocol: Human subjects were administered various daily amounts of MN-001 and placebo and their triglyceride blood levels (mg/deciliter or dl) measured at various time points. […] As to the “week 14” time point in Table 1-D, it provides triglyceride levels of follow-up patients after MN-001 administration was stopped at 12 weeks.

[3] = test system: blood levels of HDL; experiment: Blood levels of HDL upon administration of MN-001; details: human subjects
[4] = test system: total cholesterol blood levels; experiment: Total cholesterol blood levels in human subjects upon MN-001 administration
Protocol: Human subjects were administered various daily amounts of MN-001 and placebo and their total cholesterol blood levels (mg/dl) measured at various time points.

[5] = human subjects, various daily amounts, with certain exceptions

CCCc1c(SCCCOc2ccc(C(C)=O)c(OCCCC(=O)O)c2CCC)ccc(C(C)=O)c1O [MN-001]
mean LDL blood level ([1]; Table 3-A Asthma Subjects, 500 mg tid (N = 36), Screening): 113.8 mg/dL | mean LDL blood level ([1]; Table 3-A Asthma Subjects, 500 mg tid (N = 36), Week 4): 105.4 mg/dL | mean LDL blood level ([1]; Table 3-A Asthma Subjects, 750 mg bid (N = 36), Screening): 100.3 mg/dL | mean LDL blood level ([1]; Table 3-A Asthma Subjects, 750 mg bid (N = 36), Week 4): 104.7 mg/dL | mean LDL blood level ([1]; Table 3-A Asthma Subjects, 750 mg qd (N = 36), Screening): 115.7 mg/dL | mean LDL blood level ([1]; Table 3-A Asthma Subjects, 750 mg qd (N = 36), Week 4): 106.9 mg/dL | mean LDL blood level ([1]; Table 3-B Interstitial Cystitis Subjects, 500 mg bid (N = 106), Baseline): 62.6 mg/dL | mean LDL blood level ([1]; Table 3-B Interstitial Cystitis Subjects, 500 mg bid (N = 106), Week 4): 54.5 mg/dL | mean LDL blood level ([1]; Table 3-B Interstitial Cystitis Subjects, 500 mg bid (N = 106), Week 8): 52.2 mg/dL | mean LDL blood level ([1]; Table 3-B Interstitial Cystitis Subjects, 500 mg qd (N = 94), Baseline): 65.8 mg/dL | mean LDL blood level ([1]; Table 3-B Interstitial Cystitis Subjects, 500 mg qd (N = 94), Week 4): 60.1 mg/dL | mean LDL blood level ([1]; Table 3-B Interstitial Cystitis Subjects, 500 mg qd (N = 94), Week 8): 55.5 mg/dL | mean LDL blood level ([1]; Table 3-C Healthy Subjects, 1500 mg/day × 10 days (N = 11), Day 11): 103.0 mg/dL | mean LDL blood level ([1]; Table 3-C Healthy Subjects, 1500 mg/day × 10 days (N = 11), Screening): 99.1 mg/dL | mean LDL blood level ([1]; Table 3-D Asthma Subjects, 500 mg tid (N = 54), Baseline): 100.2 mg/dL | mean LDL blood level ([1]; Table 3-D Asthma Subjects, 500 mg tid (N = 54), Week 4): 99.5 mg/dL | mean LDL blood level ([1]; Table 3-D Asthma Subjects, 500 mg tid (N = 54), Week 8): 99.1 mg/dL | mean LDL blood level ([1]; Table 3-D Asthma Subjects, 500 mg tid (N = 54), Week 12): 92.5 mg/dL | mean LDL blood level ([1]; Table 3-D Asthma Subjects, 500 mg tid (N = 54), Week 14 (follow-up, administration stopped at 12 weeks)): 102.6 mg/dL | mean LDL blood level ([1]; Table 3-D Asthma Subjects, 750 mg bid (N = 53), Baseline): 106.3 mg/dL | mean LDL blood level ([1]; Table 3-D Asthma Subjects, 750 mg bid (N = 53), Week 4): 102.3 mg/dL | mean LDL blood level ([1]; Table 3-D Asthma Subjects, 750 mg bid (N = 53), Week 8): 106.6 mg/dL | mean LDL blood level ([1]; Table 3-D Asthma Subjects, 750 mg bid (N = 53), Week 12): 110.9 mg/dL | mean LDL blood level ([1]; Table 3-D Asthma Subjects, 750 mg bid (N = 53), Week 14 (follow-up, administration stopped at 12 weeks)): 103.6 mg/dL | effect on mean LDL blood levels compared to control subjects (placebo) [1, 5]: substantial lowering | mean triglyceride blood level ([2]; Table 1-A Asthma Subjects, 500 mg tid (N = 36), Screening): 109.5 mg/dL | mean triglyceride blood level ([2]; Table 1-A Asthma Subjects, 500 mg tid (N = 36), Week 4): 91.6 mg/dL | mean triglyceride blood level ([2]; Table 1-A Asthma Subjects, 750 mg bid (N = 36), Screening): 125.5 mg/dL | mean triglyceride blood level ([2]; Table 1-A Asthma Subjects, 750 mg bid (N = 36), Week 4): 98.5 mg/dL | mean triglyceride blood level ([2]; Table 1-A Asthma Subjects, 750 mg qd (N = 36), Screening): 112.2 mg/dL | mean triglyceride blood level ([2]; Table 1-A Asthma Subjects, 750 mg qd (N = 36), Week 4): 117.2 mg/dL | mean triglyceride blood level ([2]; Table 1-B Interstitial Cystitis Subjects, 500 mg bid (N = 106), Baseline): 135.7 mg/dL | mean triglyceride blood level ([2]; Table 1-B Interstitial Cystitis Subjects, 500 mg bid (N = 106), Week 4): 106.7 mg/dL | mean triglyceride blood level ([2]; Table 1-B Interstitial Cystitis Subjects, 500 mg bid (N = 106), Week 8): 110.7 mg/dL | mean triglyceride blood level ([2]; Table 1-B Interstitial Cystitis Subjects, 500 mg qd (N = 94), Baseline): 136.1 mg/dL | mean triglyceride blood level ([2]; Table 1-B Interstitial Cystitis Subjects, 500 mg qd (N = 94), Week 4): 109.5 mg/dL | mean triglyceride blood level ([2]; Table 1-B Interstitial Cystitis Subjects, 500 mg qd (N = 94), Week 8): 124.7 mg/dL | mean triglyceride blood level ([2]; Table 1-C Healthy Subjects, 1500 mg/day × 10 days (N = 11), Day 11): 87.5 mg/dL | mean triglyceride blood level ([2]; Table 1-C Healthy Subjects, 1500 mg/day × 10 days (N = 11), Screening): 145.4 mg/dL | mean triglyceride blood level ([2]; Table 1-D Asthma Subjects, 500 mg tid (N = 54), Baseline): 159.4 mg/dL | mean triglyceride blood level ([2]; Table 1-D Asthma Subjects, 500 mg tid (N = 54), Week 4): 112.5 mg/dL | mean triglyceride blood level ([2]; Table 1-D Asthma Subjects, 500 mg tid (N = 54), Week 8): 132.4 mg/dL | mean triglyceride blood level ([2]; Table 1-D Asthma Subjects, 500 mg tid (N = 54), Week 12): 147.7 mg/dL | mean triglyceride blood level ([2]; Table 1-D Asthma Subjects, 500 mg tid (N = 54), Week 14 (follow-up, administration stopped at 12 weeks)): 134.1 mg/dL | mean triglyceride blood level ([2]; Table 1-D Asthma Subjects, 750 mg bid (N = 53), Baseline): 117.0 mg/dL | mean triglyceride blood level ([2]; Table 1-D Asthma Subjects, 750 mg bid (N = 53), Week 4): 94.1 mg/dL | mean triglyceride blood level ([2]; Table 1-D Asthma Subjects, 750 mg bid (N = 53), Week 8): 101.4 mg/dL | mean triglyceride blood level ([2]; Table 1-D Asthma Subjects, 750 mg bid (N = 53), Week 12): 114.0 mg/dL | mean triglyceride blood level ([2]; Table 1-D Asthma Subjects, 750 mg bid (N = 53), Week 14 (follow-up, administration stopped at 12 weeks)): 104.6 mg/dL | triglyceride levels during follow-up period compared with a control group ([2]; Table 1-D, week 14, after administration was stopped at 12 weeks): continued their downward trend | effect on mean triglyceride blood levels compared to control subjects (placebo) [2, 5]: substantial lowering | effect on blood levels of HDL [3]: not altered substantially, if at all | mean total cholesterol blood level ([4]; Table 2-A Asthma Subjects, 500 mg tid (N = 36), Screening): 193.5 mg/dL | mean total cholesterol blood level ([4]; Table 2-A Asthma Subjects, 500 mg tid (N = 36), Week 4): 183.1 mg/dL | mean total cholesterol blood level ([4]; Table 2-A Asthma Subjects, 750 mg bid (N = 36), Screening): 180.5 mg/dL | mean total cholesterol blood level ([4]; Table 2-A Asthma Subjects, 750 mg bid (N = 36), Week 4): 181.6 mg/dL | mean total cholesterol blood level ([4]; Table 2-A Asthma Subjects, 750 mg qd (N = 36), Screening): 191.5 mg/dL | mean total cholesterol blood level ([4]; Table 2-A Asthma Subjects, 750 mg qd (N = 36), Week 4): 180.6 mg/dL | mean total cholesterol blood level ([4]; Table 2-B Interstitial Cystitis Subjects, 500 mg bid (N = 106), Baseline): 174.5 mg/dL | mean total cholesterol blood level ([4]; Table 2-B Interstitial Cystitis Subjects, 500 mg bid (N = 106), Week 4): 169.8 mg/dL | mean total cholesterol blood level ([4]; Table 2-B Interstitial Cystitis Subjects, 500 mg bid (N = 106), Week 8): 168.7 mg/dL | mean total cholesterol blood level ([4]; Table 2-B Interstitial Cystitis Subjects, 500 mg qd (N = 94), Baseline): 173.8 mg/dL | mean total cholesterol blood level ([4]; Table 2-B Interstitial Cystitis Subjects, 500 mg qd (N = 94), Week 4): 171.5 mg/dL | mean total cholesterol blood level ([4]; Table 2-B Interstitial Cystitis Subjects, 500 mg qd (N = 94), Week 8): 170.5 mg/dL | mean total cholesterol blood level ([4]; Table 2-C Healthy Subjects, 1500 mg/day × 10 days (N = 11), Day 11): 167.8 mg/dL | mean total cholesterol blood level ([4]; Table 2-C Healthy Subjects, 1500 mg/day × 10 days (N = 11), Screening): 176.9 mg/dL | mean total cholesterol blood level ([4]; Table 2-D Asthma Subjects, 500 mg tid (N = 54), Baseline): 182.5 mg/dL | mean total cholesterol blood level ([4]; Table 2-D Asthma Subjects, 500 mg tid (N = 54), Week 4): 179.3 mg/dL | mean total cholesterol blood level ([4]; Table 2-D Asthma Subjects, 500 mg tid (N = 54), Week 8): 176.9 mg/dL | mean total cholesterol blood level ([4]; Table 2-D Asthma Subjects, 500 mg tid (N = 54), Week 12): 169.6 mg/dL | mean total cholesterol blood level ([4]; Table 2-D Asthma Subjects, 500 mg tid (N = 54), Week 14 (follow-up, administration stopped at 12 weeks)): 182.8 mg/dL | mean total cholesterol blood level ([4]; Table 2-D Asthma Subjects, 750 mg bid (N = 53), Baseline): 185.4 mg/dL | mean total cholesterol blood level ([4]; Table 2-D Asthma Subjects, 750 mg bid (N = 53), Week 4): 181.6 mg/dL | mean total cholesterol blood level ([4]; Table 2-D Asthma Subjects, 750 mg bid (N = 53), Week 8): 187.3 mg/dL | mean total cholesterol blood level ([4]; Table 2-D Asthma Subjects, 750 mg bid (N = 53), Week 12): 192.4 mg/dL | mean total cholesterol blood level ([4]; Table 2-D Asthma Subjects, 750 mg bid (N = 53), Week 14 (follow-up, administration stopped at 12 weeks)): 182.6 mg/dL | effect on mean total cholesterol blood levels compared to control subjects (placebo) [4, 5]: substantial lowering

Reference: patent publication US9358217B2, “Methods for reducing triglyceride, total cholesterol and low density lipoprotein blood levels” (MediciNova, Inc., priority 2013, dated 2016)
